Experiments:
Conditions in all cases: Compound concentration 10 µM
[1] = target: T1, Alpha-1D adrenergic receptor (Homo sapiens) (UniProt P25100)
T1 sequence (whole entry): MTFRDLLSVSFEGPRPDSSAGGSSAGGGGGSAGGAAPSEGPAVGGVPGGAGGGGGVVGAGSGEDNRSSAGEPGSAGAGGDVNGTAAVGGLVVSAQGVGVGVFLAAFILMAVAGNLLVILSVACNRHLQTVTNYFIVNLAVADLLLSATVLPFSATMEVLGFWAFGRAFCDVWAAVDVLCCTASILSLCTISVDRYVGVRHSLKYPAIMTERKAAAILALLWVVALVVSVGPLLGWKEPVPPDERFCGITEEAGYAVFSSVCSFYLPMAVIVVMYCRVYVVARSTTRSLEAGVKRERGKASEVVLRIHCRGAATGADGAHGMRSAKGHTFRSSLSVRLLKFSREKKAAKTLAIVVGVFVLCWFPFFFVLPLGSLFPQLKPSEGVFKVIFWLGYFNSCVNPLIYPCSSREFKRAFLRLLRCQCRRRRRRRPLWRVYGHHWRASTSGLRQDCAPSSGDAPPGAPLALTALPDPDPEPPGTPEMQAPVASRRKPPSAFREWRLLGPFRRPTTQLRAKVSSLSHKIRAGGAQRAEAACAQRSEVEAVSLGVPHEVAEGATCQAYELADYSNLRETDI

[2] = target: T2, Alpha-2A adrenergic receptor (Homo sapiens) (UniProt P08913)
T2 sequence (whole entry): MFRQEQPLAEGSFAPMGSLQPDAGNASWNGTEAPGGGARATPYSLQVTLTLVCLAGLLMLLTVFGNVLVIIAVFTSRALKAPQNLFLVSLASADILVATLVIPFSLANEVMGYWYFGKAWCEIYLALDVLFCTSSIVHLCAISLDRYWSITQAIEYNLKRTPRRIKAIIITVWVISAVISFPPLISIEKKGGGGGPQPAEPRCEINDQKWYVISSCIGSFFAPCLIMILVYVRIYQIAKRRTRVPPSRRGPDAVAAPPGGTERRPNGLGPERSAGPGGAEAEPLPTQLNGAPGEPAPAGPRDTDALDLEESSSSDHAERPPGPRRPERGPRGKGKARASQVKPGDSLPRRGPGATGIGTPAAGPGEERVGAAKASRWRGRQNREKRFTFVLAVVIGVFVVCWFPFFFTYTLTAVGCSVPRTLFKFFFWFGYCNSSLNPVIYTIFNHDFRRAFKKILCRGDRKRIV

[3] = target: T3, Alpha-2C adrenergic receptor (Homo sapiens) (UniProt P18825)
T3 sequence (whole entry): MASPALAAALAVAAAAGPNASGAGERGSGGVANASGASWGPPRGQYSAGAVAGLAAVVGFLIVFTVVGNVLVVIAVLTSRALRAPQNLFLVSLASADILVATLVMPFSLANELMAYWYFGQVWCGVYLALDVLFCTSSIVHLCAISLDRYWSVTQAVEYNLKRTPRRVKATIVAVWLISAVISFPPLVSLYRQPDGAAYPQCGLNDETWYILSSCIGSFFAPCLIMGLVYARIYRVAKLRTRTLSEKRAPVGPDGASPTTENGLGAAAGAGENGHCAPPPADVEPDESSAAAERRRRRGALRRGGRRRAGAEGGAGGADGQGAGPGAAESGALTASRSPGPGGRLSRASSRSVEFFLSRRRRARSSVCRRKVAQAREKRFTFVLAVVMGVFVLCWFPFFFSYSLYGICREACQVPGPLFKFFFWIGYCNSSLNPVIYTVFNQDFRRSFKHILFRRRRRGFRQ

[4] = target: D(1B) dopamine receptor (Homo sapiens) (UniProt P21918)
Sequence of D(1B) dopamine receptor (Homo sapiens) (P21918 whole entry): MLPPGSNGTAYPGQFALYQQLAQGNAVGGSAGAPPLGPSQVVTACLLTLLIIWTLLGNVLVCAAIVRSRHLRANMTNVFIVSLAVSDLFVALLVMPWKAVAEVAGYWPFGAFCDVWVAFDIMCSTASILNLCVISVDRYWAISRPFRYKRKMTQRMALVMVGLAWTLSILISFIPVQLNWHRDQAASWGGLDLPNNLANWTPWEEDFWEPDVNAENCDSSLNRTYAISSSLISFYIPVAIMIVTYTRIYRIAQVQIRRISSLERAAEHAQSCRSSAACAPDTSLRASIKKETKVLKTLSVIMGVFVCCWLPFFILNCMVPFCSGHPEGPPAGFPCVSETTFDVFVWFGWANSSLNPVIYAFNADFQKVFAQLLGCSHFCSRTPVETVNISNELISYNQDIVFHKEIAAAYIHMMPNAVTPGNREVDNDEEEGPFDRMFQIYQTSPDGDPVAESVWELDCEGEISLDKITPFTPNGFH

[5] = target: Histamine H1 receptor (Homo sapiens) (UniProt P35367)
Sequence of Histamine H1 receptor (Homo sapiens) (P35367 whole entry): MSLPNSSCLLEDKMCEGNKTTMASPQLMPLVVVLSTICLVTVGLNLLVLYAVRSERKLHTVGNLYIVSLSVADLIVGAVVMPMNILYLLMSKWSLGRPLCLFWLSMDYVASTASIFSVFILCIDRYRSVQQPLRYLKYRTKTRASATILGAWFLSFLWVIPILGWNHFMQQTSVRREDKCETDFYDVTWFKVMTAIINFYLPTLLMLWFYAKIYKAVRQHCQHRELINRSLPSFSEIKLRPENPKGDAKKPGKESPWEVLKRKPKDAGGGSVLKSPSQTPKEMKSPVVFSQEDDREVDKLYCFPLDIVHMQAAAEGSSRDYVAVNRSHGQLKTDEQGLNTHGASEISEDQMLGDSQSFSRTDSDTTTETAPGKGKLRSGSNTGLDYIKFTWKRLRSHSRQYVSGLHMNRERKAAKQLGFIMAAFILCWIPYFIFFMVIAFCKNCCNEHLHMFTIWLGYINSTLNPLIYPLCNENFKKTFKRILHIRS

[6] = target: Histamine H3 receptor (Homo sapiens) (UniProt Q9Y5N1)
Sequence of Histamine H3 receptor (Homo sapiens) (Q9Y5N1 whole entry): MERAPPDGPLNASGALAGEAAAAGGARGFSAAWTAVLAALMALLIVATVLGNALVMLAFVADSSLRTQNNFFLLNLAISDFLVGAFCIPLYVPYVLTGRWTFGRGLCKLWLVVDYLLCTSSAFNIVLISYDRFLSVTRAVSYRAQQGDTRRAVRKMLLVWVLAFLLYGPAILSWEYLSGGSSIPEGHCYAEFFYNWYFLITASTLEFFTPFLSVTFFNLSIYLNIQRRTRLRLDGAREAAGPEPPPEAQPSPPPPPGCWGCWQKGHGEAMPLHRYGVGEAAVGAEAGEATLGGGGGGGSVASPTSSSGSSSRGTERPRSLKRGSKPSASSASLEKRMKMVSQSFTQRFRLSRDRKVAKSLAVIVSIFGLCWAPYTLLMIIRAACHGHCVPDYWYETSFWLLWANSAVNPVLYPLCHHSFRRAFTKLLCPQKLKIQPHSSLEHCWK

[7] = target: Histamine H4 receptor (Homo sapiens) (UniProt Q9H3N8)
Sequence of Histamine H4 receptor (Homo sapiens) (Q9H3N8 whole entry): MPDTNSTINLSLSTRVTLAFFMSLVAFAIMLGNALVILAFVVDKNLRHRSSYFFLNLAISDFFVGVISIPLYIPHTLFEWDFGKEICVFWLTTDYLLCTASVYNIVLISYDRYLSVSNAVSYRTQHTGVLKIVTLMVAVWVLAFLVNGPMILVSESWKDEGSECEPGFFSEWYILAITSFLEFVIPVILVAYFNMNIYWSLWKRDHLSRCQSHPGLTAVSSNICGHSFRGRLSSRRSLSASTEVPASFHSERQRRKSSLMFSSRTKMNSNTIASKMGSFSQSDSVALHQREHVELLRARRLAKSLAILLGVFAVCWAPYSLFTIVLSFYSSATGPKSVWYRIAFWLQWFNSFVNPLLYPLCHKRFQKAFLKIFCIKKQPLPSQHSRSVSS

[8] = target: 5-hydroxytryptamine receptor 1D (Homo sapiens) (UniProt P28221)
Sequence of 5-hydroxytryptamine receptor 1D (Homo sapiens) (P28221 whole entry): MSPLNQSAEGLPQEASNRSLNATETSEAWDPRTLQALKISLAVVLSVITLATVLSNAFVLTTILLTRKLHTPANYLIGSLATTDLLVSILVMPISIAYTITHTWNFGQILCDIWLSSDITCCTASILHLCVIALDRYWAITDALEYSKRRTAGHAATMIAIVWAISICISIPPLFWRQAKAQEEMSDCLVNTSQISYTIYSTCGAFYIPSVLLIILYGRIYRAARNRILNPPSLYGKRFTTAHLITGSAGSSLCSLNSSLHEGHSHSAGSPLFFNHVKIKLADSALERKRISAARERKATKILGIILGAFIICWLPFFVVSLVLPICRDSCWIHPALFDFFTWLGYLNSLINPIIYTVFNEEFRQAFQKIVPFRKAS

[9] = target: 5-hydroxytryptamine receptor 2B (Homo sapiens) (UniProt P41595)
Sequence of 5-hydroxytryptamine receptor 2B (Homo sapiens) (P41595 whole entry): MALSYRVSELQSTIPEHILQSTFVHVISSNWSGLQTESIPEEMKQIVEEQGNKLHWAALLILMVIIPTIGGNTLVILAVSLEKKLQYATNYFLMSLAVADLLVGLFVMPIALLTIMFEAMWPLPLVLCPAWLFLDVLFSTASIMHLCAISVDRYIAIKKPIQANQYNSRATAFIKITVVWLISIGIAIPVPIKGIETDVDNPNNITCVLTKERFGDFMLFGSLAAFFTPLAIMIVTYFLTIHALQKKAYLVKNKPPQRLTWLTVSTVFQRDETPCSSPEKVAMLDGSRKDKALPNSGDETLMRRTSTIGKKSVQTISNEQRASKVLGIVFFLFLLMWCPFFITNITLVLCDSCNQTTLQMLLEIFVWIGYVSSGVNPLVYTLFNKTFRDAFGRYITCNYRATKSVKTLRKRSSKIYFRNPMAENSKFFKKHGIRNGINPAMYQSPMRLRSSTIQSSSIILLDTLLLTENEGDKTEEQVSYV

[10] = target: Mu-type opioid receptor (Homo sapiens) (UniProt P35372)
Sequence of Mu-type opioid receptor (Homo sapiens) (P35372 whole entry): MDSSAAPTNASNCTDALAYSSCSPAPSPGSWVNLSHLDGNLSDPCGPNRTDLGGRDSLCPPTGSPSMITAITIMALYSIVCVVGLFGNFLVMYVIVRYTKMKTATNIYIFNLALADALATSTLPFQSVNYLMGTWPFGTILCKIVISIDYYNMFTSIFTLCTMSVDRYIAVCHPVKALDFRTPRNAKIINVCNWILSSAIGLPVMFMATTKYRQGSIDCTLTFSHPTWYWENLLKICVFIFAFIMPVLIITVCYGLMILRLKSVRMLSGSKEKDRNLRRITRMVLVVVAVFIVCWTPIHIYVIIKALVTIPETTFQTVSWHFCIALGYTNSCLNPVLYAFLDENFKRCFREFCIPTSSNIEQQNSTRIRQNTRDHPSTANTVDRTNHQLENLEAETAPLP

[11] = target: T4, Muscarinic acetylcholine receptor M1 (Homo sapiens) (UniProt P11229)
T4 sequence (whole entry): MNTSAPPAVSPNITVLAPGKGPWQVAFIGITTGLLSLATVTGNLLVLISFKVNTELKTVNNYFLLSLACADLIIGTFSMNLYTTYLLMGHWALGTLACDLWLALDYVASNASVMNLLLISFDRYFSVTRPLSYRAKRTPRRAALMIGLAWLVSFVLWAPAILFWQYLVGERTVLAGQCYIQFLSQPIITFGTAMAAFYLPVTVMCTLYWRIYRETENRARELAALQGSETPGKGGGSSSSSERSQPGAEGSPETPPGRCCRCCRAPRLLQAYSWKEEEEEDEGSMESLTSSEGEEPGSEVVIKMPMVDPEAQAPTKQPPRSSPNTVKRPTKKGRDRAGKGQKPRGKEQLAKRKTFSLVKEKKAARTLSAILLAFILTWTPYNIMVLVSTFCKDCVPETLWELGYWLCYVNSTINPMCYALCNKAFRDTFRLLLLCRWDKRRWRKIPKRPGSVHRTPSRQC

Row | Compound | inhibition [1] | inhibition [2] | inhibition [3] | inhibition [4] | inhibition [5] | inhibition [6] | inhibition [7] | inhibition [8] | inhibition [9] | inhibition [10] | inhibition [11]
1 | COc1cccc([C@H](O)C2CCN(CCc3ccc(F)cc3)CC2)c1OC | 34.5% | 33.1% | 26.7% | 4.09% | 92.9% | 3.17% | 3.4% | 73.8% | 89.1% | 8.06% | 
2 | CCCCc1nc(Cl)c(CO)n1Cc1ccc(-c2ccccc2-c2nnn[nH]2)cc1 | 13.1% | 6.2% | 3.84% | -1.67% |  | 31.4% | 7.13% | 43.4% | 37.1% | -1.17% | 
3 | C=CCN1C[C@H](C)N([C@H](c2ccc(C(=O)N(CC)CC)cc2)c2cccc(O)c2)C[C@H]1C |  | 17.8% | 25.4% |  | 8.35% | 0.95% | -9.85% | 31.4% | 30% | 98.5% | 4.09%
4 | CNC[C@H](O)c1cccc(O)c1 | 26.6% | 78.2% | 32.8% |  | -2.34% | 13.1% | 19.6% | 48.1% | 20.3% | 2.89% | 7.7%
5 | COc1cc2c(CCNC(C)=O)c[nH]c2cc1Cl | 6.2% | 13.4% | -1.89% |  | 3.86% |  | 2.03% | 45.4% | 57.2% | -1.77% | -4.88%
6 | Nc1nc(NCCc2ccc(O)cc2)nc2nc(-c3ccco3)nn12 | 8.13% | 19% | 9.88% | 27.8% |  |  |  | 19.7% | 84.3% | 0.03% | 
7 | CN(C)C(=O)C(CCN1CCC(O)(c2ccc(Cl)cc2)CC1)(c1ccccc1)c1ccccc1 | 38% | 47.1% | 39.4% | 1.53% |  | 10.4% | 7.53% | 55.2% | 83.3% |  | 
8 | Cc1cccc(NC(=O)N[C@@H]2N=C(c3ccccc3)c3ccccc3N(C)C2=O)c1 |  | 13.9% | 12.3% | 0.34% | 12.5% | -5.59% | 18.3% | 24.6% | 63% | 5.79% | 
9 | O=S1(=O)c2cccc3cccc(c23)N1CCCN1CCN(c2ccc(F)cc2)CC1 | 92% | 96.8% | 98.7% | -1.71% | 96.9% | 45.5% | 5.54% |  | 93.9% | 43% | 12.9%
10 | CCCCN1CCC(COC(=O)c2cc(Cl)c(N)c3c2OCCO3)CC1 | 24.6% | 66.1% | 78.8% | -0.98% | 55.4% | 32.8% | -1.37% | 54.6% | 68.3% | 9.58% | 
11 | CN1CC(=O)N=C1NC(=O)Nc1cccc(Cl)c1 | -0.49% | 3.42% | -3.83% | 18.3% | -1.11% | -4.69% | -9.18% | 4.68% | 48.7% | 5.37% | 
12 | Cc1cccc([C@H](C)c2c[nH]cn2)c1C | 42.8% | 104% | 99.1% | 11.4% |  | 2.75% | 11.3% | 145% | 51.3% |  | 
13 | CC(C)(C)NC[C@H](O)COc1nsnc1N1CCOCC1 | 8.6% | 11.8% | 1.66% | 6.52% |  | 10.1% | 3.02% | 19.4% | 16.9% | -1.47% | 
14 | CCCn1c(=O)c2[nH]c(-c3cnn(Cc4cccc(C(F)(F)F)c4)c3)nc2n(CC)c1=O |  | 10.9% | -0.44% | -3.39% | -0.63% | 3.01% |  | 10.2% | 35.7% | -6.55% | -6.12%
15 | Oc1ccc2c3c1O[C@H]1c4[nH]c5c(c4C[C@@]4(O)[C@@H](C2)N(CC2CC2)CC[C@]314)C[C@@]1(O)[C@H]2Cc3ccc(O)c4c3[C@@]1(CCN2CC1CC1)[C@H]5O4 | 4.88% | 6.23% | 15.5% | -8.61% | 9.21% | 6.5% | 1.48% |  | 14.2% | 80.6% | 4.47%
16 | OC1(c2ccc(Cl)cc2)CCN(Cc2c[nH]c3ccccc23)CC1 | 21.4% | 76.1% | 30.4% | 40.1% | 38.8% |  | 13.8% | 46.1% | 73.8% | 65% | 
17 | Cc1nc2sccn2c(=O)c1CCN1CCC(=C(c2ccc(F)cc2)c2ccc(F)cc2)CC1 | 97.8% | 98.8% | 94.9% | 74.1% | 98.3% | 30.7% | 59% |  | 89.4% | 63.5% | 18.5%
18 | CC(C)NCC(O)COc1cccc2ccccc12 (centres undefined) | 12.7% | 16.4% | 8.7% | 10.2% |  | 5.07% | 10.8% | 87.2% | 86.3% | 17.4% | 
19 | O=C(c1cc2c(cc1F)OC(c1ccc(F)cc1)(c1ccc(Cl)cc1Cl)O2)N1CCOCC1 (centres undefined) | 3.46% | 18.1% | 38.9% | 75.9% | 15.4% | 21% | 32.4% | 20.9% | 85.6% | 52.7% | 
20 | N=C(N)SCCc1c[nH]cn1 | 8.64% | 51.5% | 20.8% | 3.23% | 6.96% | 98.6% | 111% |  | 33% | -3.13% | 

From ChEMBL document CHEMBL5442219
